US11591359B2, “Enzyme-specific intracellularly-retained red fluorescent probe” (priority 2016, dated 2023)
Entries after “also recorded” stand apart in the source; their conditions may differ.

Assays:
[1] = molecular target: T1, β-galactosidase (Escherichia coli, UniProt P00722); test: Changes in absorption and fluorescence spectra by enzyme reaction; assay type: biochemical; conditions: 1 μM probe in PBS buffer, 5U β-galactosidase; for fluorescence emission in response to enzyme activity of β-galactosidase: excitation 610 nm, fluorescence 638 nm, 3600 seconds
T1 sequence (P00722 2-1024): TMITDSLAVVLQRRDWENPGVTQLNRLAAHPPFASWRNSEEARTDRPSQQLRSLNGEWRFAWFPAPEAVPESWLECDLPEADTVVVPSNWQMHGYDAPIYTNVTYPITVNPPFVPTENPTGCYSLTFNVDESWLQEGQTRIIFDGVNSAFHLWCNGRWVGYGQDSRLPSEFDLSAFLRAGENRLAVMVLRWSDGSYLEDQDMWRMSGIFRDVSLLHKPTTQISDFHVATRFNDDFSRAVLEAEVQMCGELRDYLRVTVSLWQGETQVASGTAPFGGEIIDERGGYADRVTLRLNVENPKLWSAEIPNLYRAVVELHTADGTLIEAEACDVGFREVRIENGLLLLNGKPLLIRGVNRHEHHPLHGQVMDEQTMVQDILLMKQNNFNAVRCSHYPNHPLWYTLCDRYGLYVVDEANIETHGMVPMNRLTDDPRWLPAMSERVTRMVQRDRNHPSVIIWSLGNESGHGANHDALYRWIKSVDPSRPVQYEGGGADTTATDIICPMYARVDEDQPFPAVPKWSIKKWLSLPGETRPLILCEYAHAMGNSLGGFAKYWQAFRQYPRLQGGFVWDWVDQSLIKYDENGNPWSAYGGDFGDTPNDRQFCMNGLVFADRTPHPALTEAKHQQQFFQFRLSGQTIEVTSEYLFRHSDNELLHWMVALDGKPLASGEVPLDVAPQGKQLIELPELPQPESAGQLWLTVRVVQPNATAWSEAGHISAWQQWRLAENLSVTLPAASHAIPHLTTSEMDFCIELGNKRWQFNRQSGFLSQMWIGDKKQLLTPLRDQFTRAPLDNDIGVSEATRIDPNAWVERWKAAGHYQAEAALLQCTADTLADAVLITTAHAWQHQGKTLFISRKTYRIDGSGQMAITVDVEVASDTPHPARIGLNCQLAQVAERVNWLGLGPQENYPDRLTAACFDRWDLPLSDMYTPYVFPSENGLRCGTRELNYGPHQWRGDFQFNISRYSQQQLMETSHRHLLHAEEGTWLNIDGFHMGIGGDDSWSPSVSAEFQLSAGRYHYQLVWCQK
Procedure: For the probe compounds of the present invention obtained in Example 1 (4-CH2F-SPiDER-RED-βGal and 2-CH2F-SPiDER-RED-βGal), changes in absorption and fluorescence spectra according to the addition of β-galactosidase were measured. The measurement results of 4-CH2F-SPiDER-RED-βGal are shown in FIG. 1, and the measurement results of 2-CH2F-SPiDER-RED-βGal are shown in FIG. 2.
The measurement conditions are as follows: an excitation wavelength of 610 nm, a slit (excitation/fluorescence) of 2.5 nm/2.5 nm, and a photomultiplier voltage of 700 V.
Measurements were carried out by adding 5U β-galactosidase to 2-CH2F-SPiDER-RED-βGal prepared at 1 μM in a PBS buffer solution. […] The measurement conditions are as follows: an excitation wavelength of 610 nm, a slit (excitation/fluorescence) of 2.5 nm/2.5 nm, and a photomultiplier voltage of […].

[2] = molecular target: T1, β-galactosidase; test: Labeling of fluorescent dye to BSA protein by β-galactosidase enzyme reaction in presence of BSA (SDS-PAGE fluorescence); assay type: biochemical; conditions: 1 mg/mL BSA, 5U β-galactosidase in PBS; for fluorescent labeling of BSA (fluorescence at the position of BSA after SDS electrophoresis): 10 μM compound, excitation 488 nm, fluorescence 540 to 600 nm
Procedure: The measurement results of 4-CH2F-SPiDER-RED-βGal are shown in FIG. 3, and the measurement results of 2-CH2F-SPiDER-RED-βGal are shown in FIG. 4.
Using 1) 10 μL of a PBS buffer solution containing 10 μM […], 1 mg/mL BSA, and 5U β-galactosidase, 2) 10 μL of a PBS buffer solution containing 10 μM 4-CH2F-SPiDER-RED-βGal and 1 mg/mL BSA, 3) 10 μL of a PBS buffer solution containing 10 μM 4-CH2F-SPiDER-RED-βGal and 5U β-galactosidase, 4) 10 μL of a PBS buffer solution containing only 10 μM 4-CH2F-SPiDER-RED-βGal, and 5) 10 μL of a PBS buffer solution containing 10 μM 4-CH2OH-SPiDER-RED, the reaction products were subjected to SDS-PAGE (running gel: 10%, stacking gel: 4%, electrophoresis voltage: 200 V). […] After observation, each gel was Coomassie stained and the position of the BSA on the gel was confirmed (FIG. 3(b)).
FIGS. 4(a) and 4(b) show the results of similar measurement using 10 μM 2-CH2F-SPiDER-RED-βGal instead of 10 μM 4-CH2F-SPiDER-RED-βGal.

[3] = system: Wing discs of a drosophila (en-lacZ/dpp-GFP) expressing β-galactosidase and GFP; test: Non-fixed fluorescence imaging of living biological tissue having β-galactosidase activity; assay type: cell-based, Drosophila melanogaster; conditions: room temperature for 2 hours, excitation 594 nm, fluorescence 601 to 681 nm
Procedure: Next, we have examined whether the probe compound of the present invention, 4-CHF2-SPiDER-RED-βGal, can be applied to fluorescence imaging of living biological tissues by using drosophila tissues.
Wing discs of a drosophila (Drosophila melanogaster, en-lacZ/dpp-GFP) expressing β-galactosidase and GFP in some tissues were incubated with 4-CHF2-SPiDER-RED-βGal and Hoechst 33342 at room temperature for 2 hours, and then observed under a confocal microscope (TCS SP8, manufactured by Leica). White light laser (WLL) was used as laser, and HCX PL APO CS 40×/1.25 (40 times, manufactured by Leica) was used as an objective lens. The measurement conditions are as follows: excitation wavelengths: 405 nm (Hoechst 33342), 488 nm (GFP), 594 nm (4-CHF2-SPiDER-RED-βGal), fluorescence wavelengths: 420 to 490 nm (Hoechst 33342), 490 to 570 nm (GFP), 601 to 681 nm (4-CHF2-SPiDER-RED-βGal), and a scale: 75 μm.

[4] = system: cells expressing β-galactosidase (HEK-lacZ); test: Fluorescence imaging of living cells expressing β-galactosidase (co-culture, confocal microscope); assay type: cell-based; conditions: 37° C. for 30 minutes, no washing; excitation 594 nm, fluorescence 610 to 700 nm
Procedure: (§1) 4-CHF2-SPiDER-RED-βGal was added to a dish in which cells expressing β-galactosidase (HEK-lacZ) and cells not expressing β-galactosidase (HEK) were co-cultured, and incubated at 37° C. for 30 minutes. The HEK cells were previously stained with CellTracker (TM) Green. A fluorescence image and a transmitted light image were acquired using a confocal microscope (TCS SP5X; manufactured by Leica). White light laser (WLL) was used as laser, and HCX PL APO CS 40×/1.25 (40 times, manufactured by Leica) was used as an objective lens. The observation conditions were as follows: an excitation wavelength: 594 nm, a fluorescence wavelength: 610 to 700 nm, and a scale: 25 μm.

[5] = system: cells not expressing β-galactosidase (HEK); test: Fluorescence imaging of living cells, co-cultured cells not expressing β-galactosidase; assay type: cell-based; conditions: 37° C. for 30 minutes, no washing; excitation 594 nm, fluorescence 610 to 700 nm
Procedure: as §1

Structure (SMILES) | fluorescence emission in response to enzyme activity of β-galactosidase [1] | fluorescent labeling of BSA (fluorescence at the position of BSA after SDS electrophoresis) [2] | fluorescent labeling of BSA (fluorescence at the position of BSA after SDS electrophoresis) ([2]; listed as 2-CHF2-SPiDER-RED-βGal) | fluorescence intensity of labeled BSA (comparison of the two probes) ([2]; 10 μM probe) | reactivity with the enzyme ([2]; 10 μM probe) | selective fluorescence imaging of the region / cells having β-galactosidase activity in living tissue ([3]; with Hoechst 33342, listed as 4-CHF2-SPiDER-RED-βGal) | diffusion of fluorescence of the enzyme reaction product in tissue [3] | red fluorescence in HEK-lacZ cells [4] | red fluorescence signal in HEK cells not expressing β-galactosidase [5] | fluorescence increasing rate (comparison of the two probes) [1] | reactivity with β-galactosidase (comparison of the two probes) [1]
CN(C)c1ccc2c(c1)[Si](C)(C)c1cc(O[C@@H]3O[C@H](CO)[C@H](O)[C@H](O)[C@H]3O)c(CF)cc1C21OC(=O)c2ccccc21 (some centres unmarked) [2-CH2F-SPiDER-RED-βGal] | emit fluorescence specifically in response to enzyme activity of β-galactosidase | fluorescently label bovine serum albumin (BSA) protein | BSA was fluorescently labeled | lower than that of 4-CHF2-SPiDER-RED-βGal | low | – | – | – | – | – | –
CN(C)c1ccc2c(c1)[Si](C)(C)c1c(ccc(O)c1CO)C21OC(=O)c2ccccc21 (centres unmarked) [4-CH2OH-SPiDER-RED, reference compound] | – | fluorescence was not observed | – | – | – | – | – | – | – | – | –
CN(C)c1ccc2c(c1)[Si](C)(C)c1c(ccc(O[C@@H]3O[C@H](CO)[C@H](O)[C@H](O)[C@H]3O)c1CF)C21OC(=O)c2ccccc21 (some centres unmarked) [4-CH2F-SPiDER-RED-βGal] | emit fluorescence specifically in response to enzyme activity of β-galactosidase | fluorescently label bovine serum albumin (BSA) protein | – | – | – | selective fluorescence imaging of the region having β-galactosidase activity was possible; also recorded: can be detected at a single-cell level | no diffusion of fluorescence | red fluorescence derived from the test compound was observed only in HEK-lacZ cells | no red fluorescence signal was obtained | higher fluorescence increasing rate than 2-CHF2-SPiDER-RED-βGal | higher reactivity with β-galactosidase
